From ChEMBL document CHEMBL1130065, “Dual inhibition of human leukocyte elastase and lipid peroxidation: in vitro and in vivo activities of azabicyclo[2.2.2]octane and perhydroindole derivatives” (J Med Chem, 1997)

Legend:
Neutrophil elastase = molecular target: T1, Neutrophil elastase (Homo sapiens, UniProt P08246); test: Inhibitory concentration against Human Leukocyte Elastase from human sputum
T1 sequence (P08246 whole entry): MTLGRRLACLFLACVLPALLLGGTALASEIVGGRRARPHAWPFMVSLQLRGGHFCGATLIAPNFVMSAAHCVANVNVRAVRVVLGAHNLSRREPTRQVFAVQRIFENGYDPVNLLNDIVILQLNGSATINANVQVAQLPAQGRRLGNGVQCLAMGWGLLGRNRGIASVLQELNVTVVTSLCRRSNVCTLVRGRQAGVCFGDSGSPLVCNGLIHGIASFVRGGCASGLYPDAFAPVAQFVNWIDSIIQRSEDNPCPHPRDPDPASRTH

[1] = molecular target: T2, Neutrophil elastase (Homo sapiens) (UniProt P08246); test: Percentage inhibition of HLE induced hemorrhage in the hamster lung at 18 hours; type: functional, tissue-based; details: concentration not given here
T2 sequence (whole entry): T1 sequence (P08246 whole entry)

[2] = molecular target: T2, Neutrophil elastase (Homo sapiens); test: Percentage inhibition of HLE induced hemorrhage in the hamster lung at 3 hours; type: functional; parameters: concentration or dose not given beside the values; details: concentration not given here
[3] = molecular target: T2, Neutrophil elastase (Homo sapiens); test: Percentage inhibition of HLE induced hemorrhage in the hamster lung at 6 hours; type: functional, tissue-based; details: concentration not given here
[4] = molecular target: T2, Neutrophil elastase (Homo sapiens); test: Percentage inhibition of HLE induced hemorrhage in the hamster lung at 24 hours; type: functional, tissue-based; details: concentration not given here
Rattus norvegicus [5] = species on record: Rattus norvegicus; test: Inhibitory concentration against ferric ascorbate-induced lipid peroxidation from rat liver microsomal preparation; type: functional
Stromelysin-1 = Stromelysin-1 (Homo sapiens, UniProt P08254); test: The concentration required to achieve 50% inhibition against Matrix metalloprotease-3
[6] = molecular target: Matrix metalloproteinase-9 (Homo sapiens, UniProt P14780); test: The concentration required to achieve 50% inhibition against Matrix metalloprotease-9
Prolyl endopeptidase = molecular target: T3, Prolyl endopeptidase (Homo sapiens, UniProt P48147); test: The concentration required to achieve 50% inhibition against prolyl endopeptidase
T3 sequence (P48147 whole entry): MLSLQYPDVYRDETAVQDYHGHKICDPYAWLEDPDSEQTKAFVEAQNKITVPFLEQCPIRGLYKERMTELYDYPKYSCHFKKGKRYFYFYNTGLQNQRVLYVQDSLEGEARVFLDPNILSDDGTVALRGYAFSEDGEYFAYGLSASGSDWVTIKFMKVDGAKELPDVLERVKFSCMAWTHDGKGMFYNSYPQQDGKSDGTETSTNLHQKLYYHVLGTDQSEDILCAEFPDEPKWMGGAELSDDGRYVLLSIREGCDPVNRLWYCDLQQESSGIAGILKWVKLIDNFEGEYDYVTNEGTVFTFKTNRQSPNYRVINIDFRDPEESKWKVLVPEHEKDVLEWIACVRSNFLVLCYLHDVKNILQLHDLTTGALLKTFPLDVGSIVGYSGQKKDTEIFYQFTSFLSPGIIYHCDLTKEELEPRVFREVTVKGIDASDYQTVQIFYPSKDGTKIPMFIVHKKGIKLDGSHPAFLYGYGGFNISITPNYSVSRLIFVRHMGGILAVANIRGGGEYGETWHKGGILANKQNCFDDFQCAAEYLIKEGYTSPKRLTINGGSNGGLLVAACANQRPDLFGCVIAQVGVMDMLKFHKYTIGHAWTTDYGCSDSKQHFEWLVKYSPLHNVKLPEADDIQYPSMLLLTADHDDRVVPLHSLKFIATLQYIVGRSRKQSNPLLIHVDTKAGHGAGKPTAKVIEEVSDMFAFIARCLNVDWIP

[7] = molecular target: 72 kDa type IV collagenase (Homo sapiens, UniProt P08253); test: The concentration required to achieve 50% inhibition against Matrix metalloprotease-2
Interstitial collagenase = molecular target: T4, Interstitial collagenase (Homo sapiens, UniProt P03956); test: The concentration required to achieve 50% inhibition against Matrix metalloprotease-1
T4 sequence (P03956 whole entry): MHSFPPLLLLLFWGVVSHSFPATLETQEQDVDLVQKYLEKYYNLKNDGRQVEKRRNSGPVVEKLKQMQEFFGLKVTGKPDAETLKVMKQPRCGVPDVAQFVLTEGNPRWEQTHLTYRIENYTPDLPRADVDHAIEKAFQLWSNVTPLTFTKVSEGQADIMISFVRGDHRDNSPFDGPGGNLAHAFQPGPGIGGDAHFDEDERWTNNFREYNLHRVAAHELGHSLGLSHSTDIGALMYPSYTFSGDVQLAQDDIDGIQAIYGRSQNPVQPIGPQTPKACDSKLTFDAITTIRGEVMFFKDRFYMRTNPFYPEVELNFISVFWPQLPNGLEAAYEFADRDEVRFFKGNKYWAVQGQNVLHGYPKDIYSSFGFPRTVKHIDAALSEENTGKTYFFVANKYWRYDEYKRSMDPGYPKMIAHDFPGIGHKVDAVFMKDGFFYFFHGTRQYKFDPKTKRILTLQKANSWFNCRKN

Rattus norvegicus [8] = species on record: Rattus norvegicus
[9] = molecular target: T2, Neutrophil elastase (Homo sapiens); test: Percentage inhibition of HLE induced hemorrhage in the hamster lung at 48 hours; type: functional, tissue-based; details: concentration not given here

Chain of Stromelysin-1 (P08254 whole entry): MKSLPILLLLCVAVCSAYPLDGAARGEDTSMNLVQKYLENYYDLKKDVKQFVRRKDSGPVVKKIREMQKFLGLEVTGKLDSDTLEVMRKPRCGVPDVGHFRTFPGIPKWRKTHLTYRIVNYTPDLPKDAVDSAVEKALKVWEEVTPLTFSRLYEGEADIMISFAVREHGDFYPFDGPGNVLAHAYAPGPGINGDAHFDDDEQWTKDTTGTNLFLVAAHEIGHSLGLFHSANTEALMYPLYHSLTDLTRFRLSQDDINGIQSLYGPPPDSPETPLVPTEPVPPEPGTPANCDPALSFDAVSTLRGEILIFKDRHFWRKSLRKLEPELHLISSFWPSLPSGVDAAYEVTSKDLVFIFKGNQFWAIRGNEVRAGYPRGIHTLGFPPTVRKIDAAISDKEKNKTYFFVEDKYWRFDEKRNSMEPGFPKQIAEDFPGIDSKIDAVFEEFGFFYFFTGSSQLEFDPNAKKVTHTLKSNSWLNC
Chain of 72 kDa type IV collagenase (P08253 whole entry): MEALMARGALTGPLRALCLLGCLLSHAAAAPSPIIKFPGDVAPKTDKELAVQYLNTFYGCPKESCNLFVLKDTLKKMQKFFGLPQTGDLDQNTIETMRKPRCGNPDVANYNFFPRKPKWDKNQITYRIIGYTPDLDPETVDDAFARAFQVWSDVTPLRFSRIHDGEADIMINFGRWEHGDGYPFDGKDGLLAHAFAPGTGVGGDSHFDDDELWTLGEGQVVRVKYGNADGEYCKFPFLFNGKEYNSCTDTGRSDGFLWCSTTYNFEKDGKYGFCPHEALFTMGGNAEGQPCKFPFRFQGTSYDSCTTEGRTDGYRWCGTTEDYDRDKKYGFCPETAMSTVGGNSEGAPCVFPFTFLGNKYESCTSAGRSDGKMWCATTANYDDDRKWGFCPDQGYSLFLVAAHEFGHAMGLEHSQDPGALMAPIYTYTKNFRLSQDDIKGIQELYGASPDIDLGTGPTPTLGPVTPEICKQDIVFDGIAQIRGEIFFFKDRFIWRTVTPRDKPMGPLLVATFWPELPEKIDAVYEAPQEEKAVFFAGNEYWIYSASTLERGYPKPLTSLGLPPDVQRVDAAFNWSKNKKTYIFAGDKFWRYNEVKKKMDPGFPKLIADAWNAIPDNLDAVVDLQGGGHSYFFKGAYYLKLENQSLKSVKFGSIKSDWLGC
Chain of Matrix metalloproteinase-9 (P14780 whole entry): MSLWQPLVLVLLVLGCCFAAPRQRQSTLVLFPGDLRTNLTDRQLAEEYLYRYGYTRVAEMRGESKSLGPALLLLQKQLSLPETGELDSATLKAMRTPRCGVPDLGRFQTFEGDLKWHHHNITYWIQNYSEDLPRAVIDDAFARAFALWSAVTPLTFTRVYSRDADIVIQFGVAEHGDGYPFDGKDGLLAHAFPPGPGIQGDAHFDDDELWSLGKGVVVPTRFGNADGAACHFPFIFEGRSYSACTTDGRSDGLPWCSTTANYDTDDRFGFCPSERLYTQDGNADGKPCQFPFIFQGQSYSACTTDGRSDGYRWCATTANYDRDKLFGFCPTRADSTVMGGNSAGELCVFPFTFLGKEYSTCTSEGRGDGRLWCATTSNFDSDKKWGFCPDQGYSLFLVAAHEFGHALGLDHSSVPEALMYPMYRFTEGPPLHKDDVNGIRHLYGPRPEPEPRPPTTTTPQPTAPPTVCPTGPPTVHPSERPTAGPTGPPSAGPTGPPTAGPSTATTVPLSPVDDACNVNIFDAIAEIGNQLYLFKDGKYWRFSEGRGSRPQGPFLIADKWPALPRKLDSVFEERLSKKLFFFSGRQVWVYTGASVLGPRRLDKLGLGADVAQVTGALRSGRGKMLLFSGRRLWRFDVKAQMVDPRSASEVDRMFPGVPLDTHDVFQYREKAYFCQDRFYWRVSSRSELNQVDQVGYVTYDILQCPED

| Compound | IC50 (Neutrophil elastase) | inhibition [2] | IC50 (Rattus norvegicus [5]) | IC50 (Rattus norvegicus [8]) | other results |
| --- | --- | --- | --- | --- | --- |
| CC(C)C(NC(=O)c1ccc(S(=O)(=O)NC(=O)Cc2cc(C(C)(C)C)c(O)c(C(C)(C)C)c2)cc1)C(=O)N1[C@@H](C(=O)NC(C(=O)C(F)(F)F)C(C)C)C[C@H]2CCCC[C@H]21 (stereo not given in full) | 38 nM | 66% | 5000 nM | – | inhibition [1]: 26%; inhibition [3]: 65%; inhibition [4]: 3% |
| CC(C)C(NC(=O)c1ccc(S(=O)(=O)NC(=O)c2ccc(Cl)c(S(=O)(=O)NC(=O)CSc3cc(C(C)(C)C)c(O)c(C(C)(C)C)c3)c2)cc1)C(=O)N1[C@@H](C(=O)NC(C(=O)C(F)(F)F)C(C)C)C[C@H]2CCCC[C@H]21 (stereo not given in full) | – | – | – | – | IC50 (Stromelysin-1): 38000 nM; IC50 [6]: 24000 nM; IC50 (Prolyl endopeptidase): 2000 nM; IC50 [7]: 19000 nM; IC50 (Interstitial collagenase): 58000 nM |
| CCOCOc1c(C(C)(C)C)cc(/C=C/C(=O)NS(=O)(=O)c2ccc(C(=O)NC(C(=O)N3[C@@H](C(=O)NC(C(=O)C(F)(F)F)C(C)C)C[C@H]4CCCC[C@H]43)C(C)C)cc2)cc1C(C)(C)C (stereo not given in full) | 36 nM | 19% | – | Not Active | – |
| CC(C)C(NC(=O)c1ccc(S(=O)(=O)NC(=O)c2cc(C(C)(C)C)c(OC(=O)c3cc(C(C)(C)C)c(O)c(C(C)(C)C)c3)c(C(C)(C)C)c2)cc1)C(=O)N1[C@@H](C(=O)NC(C(=O)C(F)(F)F)C(C)C)C[C@H]2CCCC[C@H]21 (stereo not given in full) | 46 nM | 0% | – | Not Active | – |
| CC(C)C(NC(=O)c1ccc(C(=O)NS(=O)(=O)c2ccc(Cl)cc2)cc1)C(=O)N1C2CCC(CC2)[C@@H]1C(=O)NC(C(=O)C(F)(F)F)C(C)C (stereo not given in full) | 15 nM | – | – | Not Active | – |
| CC(C)C(NC(=O)[C@@H]1CC2CCCCC2N1C(=O)[C@@H](CCCCNC(=O)Cc1cc(C(C)(C)C)c(O)c(C(C)(C)C)c1)NC(=O)c1ccc(C(=O)NS(=O)(=O)c2ccc(Cl)cc2)cc1)C(=O)C(F)(F)F (stereo not given in full) | 70 nM | 40% | 2500 nM | – | inhibition [1]: 45%; inhibition [3]: 41%; inhibition [4]: 14%; inhibition [9]: 0% |
| CC(C)C(NC(=O)[C@@H]1CC2CCCCC2N1C(=O)[C@@H](CCCCNC(=O)CCCSc1cc(C(C)(C)C)c(O)c(C(C)(C)C)c1)NC(=O)c1ccc(C(=O)NS(=O)(=O)c2ccc(Cl)cc2)cc1)C(=O)C(F)(F)F (stereo not given in full) | 84 nM | 3% | 2500 nM | – | – |
| CC(C)[C@H](NC(=O)OC(C)(C)C)C(=O)N1C2CCC(CC2)[C@@H]1C(=O)N[C@H](C(=O)C(F)(F)F)C(C)C | 32 nM | – | – | – | – |
